In assay [1] the target is T1, Alpha-1D adrenergic receptor (Homo sapiens, UniProt P25100).
T1 sequence (P25100 whole entry): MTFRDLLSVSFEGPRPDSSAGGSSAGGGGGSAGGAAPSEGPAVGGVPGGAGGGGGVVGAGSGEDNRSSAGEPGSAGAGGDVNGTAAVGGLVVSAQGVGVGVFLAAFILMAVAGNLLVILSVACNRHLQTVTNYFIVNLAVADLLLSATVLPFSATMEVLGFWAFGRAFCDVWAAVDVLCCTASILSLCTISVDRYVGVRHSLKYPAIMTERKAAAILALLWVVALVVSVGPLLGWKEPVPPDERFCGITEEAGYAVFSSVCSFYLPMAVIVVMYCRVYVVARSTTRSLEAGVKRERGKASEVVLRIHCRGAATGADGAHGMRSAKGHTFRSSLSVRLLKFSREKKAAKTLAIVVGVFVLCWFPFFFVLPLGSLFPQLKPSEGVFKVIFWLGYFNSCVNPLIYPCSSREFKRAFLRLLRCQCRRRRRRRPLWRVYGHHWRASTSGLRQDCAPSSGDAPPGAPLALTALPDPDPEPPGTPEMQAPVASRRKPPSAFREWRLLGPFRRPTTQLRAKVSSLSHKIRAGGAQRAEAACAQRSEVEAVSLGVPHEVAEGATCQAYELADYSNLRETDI
As to the kind of experiment: PDSP Secondary Binding target: ADRA1D - Compounds are tested at 10 uM concentration, plate are incubated at room temperature in the dark for 90 minutes. Reaction are stopped by vacuum filtration onto 0.3% polyethyleneimine soaked filter mats using Filtermate harvester. Scintillation cocktail is then melted onto microwave-dried filters on a hot plate and the radio activity is counted in Microbia counter.

Assay [2] concerns the target 5-hydroxytryptamine receptor 7 (Homo sapiens, UniProt P34969). As to the kind of experiment: PDSP Secondary Binding target: HTR7 - Compounds are tested at 10 uM concentration, plate are incubated at room temperature in the dark for 90 minutes. Reaction are stopped by vacuum filtration onto 0.3% polyethyleneimine soaked filter mats using Filtermate harvester. Scintillation cocktail is then melted onto microwave-dried filters on a hot plate and the radio activity is counted in Microbia counter.

The target of the next assay is D(2) dopamine receptor (Homo sapiens, UniProt P14416). Nature of the assay: PDSP Secondary Binding target: DRD2 - Compounds are tested at 10 uM concentration, plate are incubated at room temperature in the dark for 90 minutes. Reaction are stopped by vacuum filtration onto 0.3% polyethyleneimine soaked filter mats using Filtermate harvester. Scintillation cocktail is then melted onto microwave-dried filters on a hot plate and the radio activity is counted in Microbia counter.

The target in assay [3] is T2, Alpha-1A adrenergic receptor (Homo sapiens, UniProt P35348).
T2 sequence (P35348 whole entry): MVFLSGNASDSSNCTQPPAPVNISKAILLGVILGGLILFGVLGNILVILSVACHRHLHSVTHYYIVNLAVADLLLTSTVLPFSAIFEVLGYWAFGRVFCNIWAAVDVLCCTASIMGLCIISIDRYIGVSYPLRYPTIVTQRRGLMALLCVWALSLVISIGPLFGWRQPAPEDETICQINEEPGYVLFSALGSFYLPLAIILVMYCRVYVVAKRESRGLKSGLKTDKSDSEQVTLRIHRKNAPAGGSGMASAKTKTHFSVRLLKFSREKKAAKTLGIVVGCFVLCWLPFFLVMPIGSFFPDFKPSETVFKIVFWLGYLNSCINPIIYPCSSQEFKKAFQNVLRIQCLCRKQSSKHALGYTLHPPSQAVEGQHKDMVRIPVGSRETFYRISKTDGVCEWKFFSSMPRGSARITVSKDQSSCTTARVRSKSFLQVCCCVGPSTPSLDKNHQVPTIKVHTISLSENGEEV
As to the kind of experiment: PDSP Secondary Binding target: ADRA1A - Compounds are tested at 10 uM concentration, plate are incubated at room temperature in the dark for 90 minutes. Reaction are stopped by vacuum filtration onto 0.3% polyethyleneimine soaked filter mats using Filtermate harvester. Scintillation cocktail is then melted onto microwave-dried filters on a hot plate and the radio activity is counted in Microbia counter.

Assay [4] deals with T3, Alpha-2A adrenergic receptor (Homo sapiens, UniProt P08913).
T3 sequence (P08913 whole entry): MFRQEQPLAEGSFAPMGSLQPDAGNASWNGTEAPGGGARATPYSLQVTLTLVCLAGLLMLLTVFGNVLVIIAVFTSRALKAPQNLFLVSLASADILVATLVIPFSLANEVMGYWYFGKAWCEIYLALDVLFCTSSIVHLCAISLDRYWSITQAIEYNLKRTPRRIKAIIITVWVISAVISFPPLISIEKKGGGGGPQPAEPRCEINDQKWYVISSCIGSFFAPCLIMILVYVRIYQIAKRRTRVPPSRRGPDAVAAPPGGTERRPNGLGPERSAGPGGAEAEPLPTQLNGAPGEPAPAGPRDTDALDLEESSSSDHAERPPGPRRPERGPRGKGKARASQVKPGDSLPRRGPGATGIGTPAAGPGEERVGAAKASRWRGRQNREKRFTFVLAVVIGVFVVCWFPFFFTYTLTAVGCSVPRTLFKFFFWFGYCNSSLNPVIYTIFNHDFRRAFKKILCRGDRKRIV
Nature of the assay: PDSP Secondary Binding target: ADRA2A - Compounds are tested at 10 uM concentration, plate are incubated at room temperature in the dark for 90 minutes. Reaction are stopped by vacuum filtration onto 0.3% polyethyleneimine soaked filter mats using Filtermate harvester. Scintillation cocktail is then melted onto microwave-dried filters on a hot plate and the radio activity is counted in Microbia counter.

For assay [5], the target named is T4, 5-hydroxytryptamine receptor 2C (Homo sapiens, UniProt P28335).
T4 sequence (P28335 whole entry): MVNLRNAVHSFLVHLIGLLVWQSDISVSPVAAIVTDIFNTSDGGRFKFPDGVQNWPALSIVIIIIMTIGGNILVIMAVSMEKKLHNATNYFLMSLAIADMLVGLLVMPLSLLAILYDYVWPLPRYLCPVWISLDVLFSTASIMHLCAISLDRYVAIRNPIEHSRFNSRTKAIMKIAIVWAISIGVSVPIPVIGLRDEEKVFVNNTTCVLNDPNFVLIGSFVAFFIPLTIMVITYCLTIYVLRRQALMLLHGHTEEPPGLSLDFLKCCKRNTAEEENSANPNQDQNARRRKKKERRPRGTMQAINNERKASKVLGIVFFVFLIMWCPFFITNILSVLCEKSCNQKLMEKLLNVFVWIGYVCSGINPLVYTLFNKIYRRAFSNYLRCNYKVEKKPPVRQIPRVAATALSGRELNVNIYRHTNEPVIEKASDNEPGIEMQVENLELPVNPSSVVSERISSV
Nature of the assay: PDSP Secondary Binding target: HTR2C - Compounds are tested at 10 uM concentration, plate are incubated at room temperature in the dark for 90 minutes. Reaction are stopped by vacuum filtration onto 0.3% polyethyleneimine soaked filter mats using Filtermate harvester. Scintillation cocktail is then melted onto microwave-dried filters on a hot plate and the radio activity is counted in Microbia counter.

In general, Ki refers to the equilibrium dissociation constant of an inhibitor or competing ligand from its target. Low readings indicate a stronger hold on the target, high ones a looser hold on the target.

Structures can show the parent of a compound that is named as a salt.

Sequence of D(2) dopamine receptor (P14416 whole entry): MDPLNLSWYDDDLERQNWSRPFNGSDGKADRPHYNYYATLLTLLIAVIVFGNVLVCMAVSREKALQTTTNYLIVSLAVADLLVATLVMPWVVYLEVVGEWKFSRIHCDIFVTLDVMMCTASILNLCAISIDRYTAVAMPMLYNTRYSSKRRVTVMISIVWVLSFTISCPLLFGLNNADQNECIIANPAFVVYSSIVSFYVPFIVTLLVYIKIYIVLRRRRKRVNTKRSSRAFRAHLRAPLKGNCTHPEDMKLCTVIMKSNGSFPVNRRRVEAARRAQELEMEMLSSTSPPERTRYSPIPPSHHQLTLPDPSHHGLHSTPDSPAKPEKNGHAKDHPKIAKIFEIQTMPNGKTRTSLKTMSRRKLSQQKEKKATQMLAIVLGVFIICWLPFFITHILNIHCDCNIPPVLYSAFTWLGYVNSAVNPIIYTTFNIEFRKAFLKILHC
Sequence of 5-hydroxytryptamine receptor 7 (P34969 whole entry): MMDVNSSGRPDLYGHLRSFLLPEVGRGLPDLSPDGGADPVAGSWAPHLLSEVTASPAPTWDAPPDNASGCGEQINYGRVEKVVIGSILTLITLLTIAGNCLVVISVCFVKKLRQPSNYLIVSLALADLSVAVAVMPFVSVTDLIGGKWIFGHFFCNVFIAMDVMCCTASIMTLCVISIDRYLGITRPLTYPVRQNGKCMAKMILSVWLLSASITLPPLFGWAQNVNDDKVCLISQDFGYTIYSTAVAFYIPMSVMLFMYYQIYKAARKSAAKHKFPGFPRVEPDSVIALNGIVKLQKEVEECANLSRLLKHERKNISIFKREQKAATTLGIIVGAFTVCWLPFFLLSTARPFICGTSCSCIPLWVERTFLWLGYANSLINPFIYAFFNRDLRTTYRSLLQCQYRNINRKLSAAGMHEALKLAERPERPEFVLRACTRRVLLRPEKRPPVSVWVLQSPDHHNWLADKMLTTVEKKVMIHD

As to `N#Cc1ccc2[nH]cc(CCCCN3CCN(c4ccc5oc(C(N)=O)cc5c4)CC3)c2c1` [VILAZODONE HYDROCHLORIDE], the Ki in assay [1] came out at 716 nM; in assay [2] it was 794 nM; at D(2) dopamine receptor it was 553 nM; in assay [3] it was 278 nM; in assay [4], 2490 nM.

For the compound `CCc1ccc(OCc2ccccc2C(=O)Nc2ccc3nc(C)cc(N)c3c2)cc1`, the figures for the Ki in assay [1] and in assay [5] were 2080 nM and 328 nM, respectively.

In the case of `Clc1cccc(COc2cncc(N3CCNCC3)n2)c1`, the Ki was 556 nM in assay [2] and 9.45 nM in assay [5].

With `COC(=O)C1=C(C)NC(C)=C(C(=O)OCCCN2CCC(c3ccccc3)(c3ccccc3)CC2)[C@H]1c1cccc([N+](=O)[O-])c1` [NIGULDIPINE], the Ki in assay [2] was determined as 313 nM; on D(2) dopamine receptor, 280 nM; in assay [5], 1850 nM.

As to `CCc1cc2c(cc1CC)CC(NC[C@H](O)c1ccc(O)c3[nH]c(=O)ccc13)C2` [INDACATEROL], the inhibition constant Ki in assay [1] was determined as 731 nM; in assay [3], 356 nM; in assay [5] it was 1800 nM.

Compound `Cc1c(P(=S)(c2ccccc2)c2ccccc2)n2ccccc2[n+]1C/C=C/c1ccccc1` showed an inhibition constant Ki in assay [4] of 568 nM.

On to `NCCc1cn(S(=O)(=O)c2c(Cl)nc3sccn23)c2ccccc12`, for which the Ki in assay [2] was 1430 nM; in assay [3] it was 1100 nM; in assay [4] it was 153 nM.

As to `O=S1(=O)c2cccc3cccc(c23)N1CCCN1CCN(c2ccc(F)cc2)CC1` [FANANSERIN], the Ki in assay [2] is 744 nM; in assay [3], 195 nM; in assay [4], 2020 nM.

For `Cc1nn(C)c(C)c1-c1cccc2c1CC[C@H](N(C)C)C2`, the Ki in assay [2] is 2.3 nM; in assay [4] it was 647 nM.

Turning to `CN(C)C(=O)N[C@H]1CC[C@H](CCN2CCN(c3cccc(Cl)c3Cl)CC2)CC1` [CARIPRAZINE HYDROCHLORIDE], the inhibition constant Ki in assay [1] came out at 323 nM; in assay [2] it was 76.1 nM; in assay [5], 1250 nM; in assay [4], 1740 nM.

Turning to `Cc1nc2sccn2c(=O)c1CCN1CCC(=C(c2ccc(F)cc2)c2ccc(F)cc2)CC1` [RITANSERIN], the inhibition constant Ki in assay [2] is 47.3 nM; at D(2) dopamine receptor, 184 nM; in assay [3], 172 nM; in assay [5], 4.09 nM; in assay [4] it was 367 nM.

Turning to `Cc1cc(C)cc(-c2cnc3cc(Cl)c(-c4cccc(O)c4)cc3c2OCCCN)c1`, the Ki in assay [1] stood at 1680 nM; in assay [2], 2180 nM; in assay [4] it was 852 nM.

With `COc1ccc(NS(=O)(=O)c2sc3ccc(Cl)cc3c2C)cc1N1CCNCC1`, the inhibitory constant (Ki) amounted to 1280 nM in assay [5] and 590 nM in assay [4].

Take `CN1CCC(=C2c3ccccc3CC(=O)c3sccc32)CC1` [KETOTIFEN FUMARATE]: the Ki in assay [2] amounted to 407 nM; at D(2) dopamine receptor, 1730 nM; in assay [4], 1080 nM.

For `C[C@@H](NCCCc1cccc(C(F)(F)F)c1)c1cccc2ccccc12` [CINACALCET HYDROCHLORIDE], the values for the inhibitory constant (Ki) in assay [2] and in assay [5] were 571 nM and 658 nM, respectively.

For the compound `COc1cccc([C@@H](C)NCCCc2ccccc2Cl)c1` [TECALCET HYDROCHLORIDE], the affinity in assay [5] corresponds to a Ki of 162 nM. In other words, the sub-micromolar range.

In the case of `CCCCN1CCC(COC(=O)c2cc(Cl)c(N)c3c2OCCO3)CC1`, the inhibition constant (Ki) is 1850 nM in assay [3], 635 nM in assay [5] and 1530 nM in assay [4].

With `CN1C[C@H](C(=O)N[C@]2(C)O[C@@]3(O)[C@@H]4CCCN4C(=O)[C@H](Cc4ccccc4)N3C2=O)C[C@@H]2c3cccc4[nH]cc(c34)C[C@H]21` [DIHYDROERGOTAMINE MESYLATE], the Ki in assay [2] is 60.2 nM; at D(2) dopamine receptor, 60.9 nM; in assay [3], 32.9 nM; in assay [5], 214 nM.

On to `OCc1cc(C(O)CNCCCCCCOCCCCc2ccccc2)ccc1O` (configuration not stated) [SALMETEROL], for which the Ki in assay [1] is 963 nM; in assay [2], 257 nM; in assay [3] it was 549 nM; in assay [5], 4090 nM; in assay [4], above 10000 nM.

As to `S=C(NCCCc1c[nH]cn1)NCCCN(Cc1ccc(Cl)c(Cl)c1)c1ccc(Br)cn1`, the Ki in assay [1] was found to be 1700 nM; in assay [2], 1540 nM; in assay [3], 513 nM; in assay [5], 251 nM; in assay [4], 178 nM.

Turning to `COc1cc(-n2cnc3cc(-c4ccc(Cl)cc4)sc3c2=O)ccc1OCCN1CCCC1`, the Ki in assay [1] came out at 6050 nM; in assay [5], 893 nM; in assay [4], 2940 nM.

In the case of `Cc1nc(-c2ccc(-c3ccc(C(=O)N4CCc5cc6c(cc54)C4(CCN(C)CC4)CO6)cc3)c(C)c2)no1` [SB-224289], the Ki was 2110 nM in assay [1], 859 nM in assay [5] and 2430 nM in assay [4].

As to `CN1CCN(c2ccc(Nc3c4ccccc4nc4ccccc34)cc2)CC1`, the Ki in assay [1] was determined as 1750 nM; in assay [2] it was 414 nM; in assay [3] it was 1580 nM.

`CN1C2CCC1CC(OC(c1ccc(F)cc1)c1ccc(F)cc1)C2` (configuration not stated): the Ki in assay [1] is 58.2 nM; in assay [2] it was 126 nM; on D(2) dopamine receptor, 767 nM.

In the case of `COc1ccc(NC(=O)c2ccc(-c3ccc(-c4noc(C)n4)cc3C)cc2)cc1OCCN(C)C`, the Ki stood at 1100 nM in assay [2], 264 nM in assay [5] and 440 nM in assay [4].

In assay [4], `CCOC(=O)c1c(C)[nH]c2ccc3c(c12)CN1CCc2cc(OC)ccc2C1O3` (configuration not stated) yielded a Ki of 767 nM.

For the compound `CCc1nn(CCCN2CCN(c3cccc(Cl)c3)CC2)c(=O)n1CCOc1ccccc1` [NEFAZODONE HYDROCHLORIDE], the Ki worked out at 445 nM in assay [1], 70.2 nM in assay [2], 736 nM at D(2) dopamine receptor and 137 nM in assay [3].

Regarding `NC[C@@H]1O[C@H](C23CC4CC(CC(C4)C2)C3)Cc2c1ccc(O)c2O`, the inhibition constant (Ki) in assay [4] was determined as 898 nM.

For the origin of these results see ChEMBL document CHEMBL5442175, “EUbOPEN Chemogenomics Library - PDSP Secondary Binding” (2024).
